The term IC50 denotes the concentration that gives 50% inhibition.

Common to all, as to type: functional, cell-based
The subject of one test is A549. The test can be described thus: Cytotoxicity against human A549 cells after 48 hrs by MTT assay. Conditions: A549, 48 h. (In general: Tetrazolium assays rely on reduction of a dye to a coloured formazan, in cell work by metabolically active cells.)
In the next test the test system is HL-60. Kind of test: Cytotoxicity against human HL60 cells after 48 hrs by MTT assay. Conditions: HL-60, 48 h.
Another test deals with MDA-MB-231. The test can be described thus: Cytotoxicity against human MDA-MB-231 cells after 48 hrs by MTT assay. The settings on record: MDA-MB-231, 48 h.
The next test relates to LS180. The test can be described thus: Cytotoxicity against human LS180 cells after 48 hrs by MTT assay. The settings on record: LS180, 48 h.

Structures are written as SMILES. Non-standard residues stand in square brackets, D forms with d. Residues, ends and D or L forms follow the SMILES beside them. *: point of attachment. Leu(ol) = CC(C)C[C@H](N)CO; dIva = CC[C@@](C)(N)C(=O)O; Octanoyl = CCCCCCCC(=O)*; Aib = CC(C)(N)C(=O)O

As for `CCCCCCCC(=O)NCC(=O)N[C@@H](C)C(=O)N[C@@H](CC(C)C)C(=O)N[C@](C)(CC)C(=O)N[C@@H](CO)C(=O)N[C@H](C(=O)N[C@H](CO)CC(C)C)[C@@H](C)CC`, the IC50 is 30 µM in the test on A549, 2 µM in the test on HL-60, 4 µM in the test on MDA-MB-231 and > 30 µM in the test on LS180.
Taken in the same sequence, the figures for `CCCCCCCC(=O)NCC(=O)N[C@@H](C)C(=O)N[C@@H](CC(C)C)C(=O)NC(C)(C)C(=O)N[C@@H](C)C(=O)N[C@H](C(=O)N[C@H](CO)CC(C)C)[C@@H](C)CC` (Octanoyl-GAL[Aib]AI[Leu(ol)]) were 17 µM, 16 µM, 16 µM and > 30 µM.
The like results for `CCCCCCCC(=O)NCC(=O)N[C@@H](C)C(=O)N[C@@H](CC(C)C)C(=O)NC(C)(C)C(=O)N[C@@H](CO)C(=O)N[C@H](C(=O)N[C@H](CO)CC(C)C)[C@@H](C)CC` (Octanoyl-GAL[Aib]SI[Leu(ol)]) were, in that order, 30 µM, > 30 µM, > 30 µM and > 30 µM.
The like results for `CCCCCCCC(=O)NCC(=O)N[C@@H](C)C(=O)N[C@@H](CC(C)C)C(=O)N[C@](C)(CC)C(=O)N[C@@H](C)C(=O)N[C@H](C(=O)N[C@H](CO)CC(C)C)[C@@H](C)CC` (Octanoyl-GAL[dIva]AI[Leu(ol)]) were, in that order, 4 µM, 4 µM, 5 µM and 7 µM.
In the test with LS180, `CC(=O)O[C@H]1C(=O)[C@@]2(C)[C@H]([C@H](OC(=O)c3ccccc3)[C@]3(O)C[C@H](OC(=O)[C@H](O)[C@@H](NC(=O)c4ccccc4)c4ccccc4)C(C)=C1C3(C)C)[C@]1(OC(C)=O)CO[C@@H]1C[C@@H]2O` [PACLITAXEL] displayed an IC50 of 0.0028 µM.

The values above are taken from ChEMBL document CHEMBL4138277, “Lipovelutibols A-D: Cytotoxic Lipopeptaibols from the Himalayan Cold Habitat Fungus Trichoderma velutinum” (J Nat Prod, 2018).
